Laboratory results taken from publication PMC8464850, “Sulfonium Ligands of the α7 nAChR” (Molecules, 2021).
Where two headings read alike, the source gives them in different places.

Tests used:
α7 nAChR [1] = target: T1, α7 nAChR (Homo sapiens, UniProt P36544); test: Inhibition of α7 ACh-evoked responses; assay type: cell-based; conditions: for effect on 60 µM ACh response at 1 mM: compound 1 mM co-applied with 60 µM ACh; for inhibition of responses to 60 µM ACh: compound co-applied at 100 µM; for inhibition at 100 µM: read-out: inhibition of responses to 60 µM ACh
T1 construct: expressed in transfected cells; host or cells: Xenopus laevis oocytes (injected RNA)
Procedure: Figure 4 Effects sulfonium compounds on α7 ACh-evoked net-charge responses. (A) Effects of the sulfonium compounds at 100 µM co-applied with 60 µM relative to responses to 60 µM ACh applied alone. Data are the averages (±SEM) from seven or eight cells under each condition. (B) Effects of select sulfonium compounds at 1 mM co-applied with 60 µM relative to responses to 60 µM ACh applied alone. Data are the averages (±SEM) from seven or eight cells under each condition. Statistical significance was determined by pairwise t-test with p values corrected for multiple comparisons; * p < 0.05, ** p < 0.001.
The sulfonium compounds that were active with TQS but produced little inhibition of ACh response at a concentration of 100 µM were tested as inhibitors of ACh response at a concentration of 1 mM (Figure 4B).
We tested S8 across a range of concentrations for its ability to inhibit 60 µM ACh responses (Figure 5A). Note that we use 60 µM as an ACh control because this concentration gives nearly maximal (93%) net-charge responses, with the time course of the responses roughly following the speed of solution exchange. […] We tested whether inhibition of α7 responses by S8 was surmountable by increasing ACh concentration, consistent with a competitive mechanism of inhibition. However, since α7 responses to concentrations of ACh greater than 60 µM occur more rapidly than solution exchange in the chamber, we first pre-applied 5 µM S8 prior to the co-application of 5 µM S8 with either 60 µM or 1 mM ACh (Figure 5B). The 60 µM net-charge responses were reduced to 28 ± 2% of controls (n = 8) and 60 µM peak currents to 21 ± 3 % controls. The 1 mM net-charge responses were reduced to 56 ± 6 % of those obtained without S8 co-application, although the S8 co-application increased the peak-current amplitudes compared to 60 µM controls from 1.78 ± 0.15 to 3.72 ± 0.81 (n = 8).
Figure 5 Inhibition of α7 ACh-evoked responses by S8. (A) Concentration-response studies of α7 net-charge responses to 60 µM ACh co-applied with increasing concentrations of S8. To confirm the stability of the ACh responses, applications of ACh plus S8 were alternated with applications of ACh alone. Data are the averages of eight cells (±SEM). See text for curve-fit values. (B) Effects of 5 µM S8 on responses to either 60 µM or 1 mM ACh. The traces shown across the top are the averaged raw data from seven cells, each normalized to the peak current of the first ACh control response shown. In order to assure that the S8 was present at 5 µM throughout the ACh-evoked responses, a 30 s pre-application was made of 5 µM S8 alone. The lower traces show averaged responses to 60 µM or 1 mM ACh alone or with the 5 µM S8 pre- and co-application. The details of the data are described in Methods.
(§1) Experiments were conducted using OpusXpress 6000A (Molecular Devices, Union City, CA, USA). Both the voltage and current electrodes were filled with 3 M KCl. Oocytes were voltage-clamped at −60 mV at room temperature (24 °C). The oocytes were bath-perfused with Ringer’s solution (115 mM NaCl, 2.5 mM KCl, 1.8 mM CaCl2, 10 mM HEPES, and 1 μM atropine, pH 7.2) at 2 mL/min for α7 receptors, or 4 mL/min for heteromeric nAChR. To evaluate the effects of experimental compounds, responses were compared to control ACh-evoked responses, defined as the average of two initial applications of ACh made before test applications. ACh control concentrations were 60 µM for α7 receptors; 100 µM for α4(3)β2(2) and α3β4 receptors; 30 µM for α4β2α6β2β3 and muscle-type (αβ1εδ) receptors; and 10 µM for α4(3)β2(2) and α4(2)β2(2)α5 receptors.
Solutions were applied from 96-well plates via disposable tips. Drug applications were 12 s in duration, followed by 181 s washout periods for α7 receptors, or 6 s in duration followed by 301 s washout periods for heteromeric nAChR. […]

α3β4 nAChR = target: T2, α3β4 nAChR (Homo sapiens, UniProt P30926+P32297); test: Inhibition of α3β4 100 µM ACh-evoked peak currents; assay type: cell-based; conditions: co-application with 100 µM ACh, peak currents
T2 construct: expressed in transfected cells; host or cells: Xenopus laevis oocytes (injected RNA)
Procedure: (§2) Although none of the other sulfonium compounds activated neuronal heteromeric receptors, several of them produced inhibition of ACh-evoked responses. Shown in Figure 7A are concentration-response studies for the compounds that were active antagonists of α3β4 nAChR (Table 3). Some compounds were also tested as antagonists of α4β2 subtypes formed with concatamers (Figure 7B).
Figure 7 Inhibition of heteromeric nAChR by sulfonium compounds. (A) Inhibition of α3β4 100 µM ACh-evoked peak currents by the co-application of the sulfonium compounds. Data are the averaged of six to eight oocytes (±SEM). To confirm the stability of the ACh responses, applications of ACh plus the sulfonium compounds were alternated with applications of ACh alone. (B) Inhibition of ACh control peak-current responses of α4-containing nAChR formed with concatamers by 100 µM of the sulfonium compounds indicated. Data are the average of six to eight oocytes (±SEM).
as §1
(§3) Solutions were applied from 96-well plates via disposable tips. Drug applications were 12 s in duration, followed by 181 s washout periods for α7 receptors, or 6 s in duration followed by 301 s washout periods for heteromeric nAChR. The responses were calculated as both peak current amplitudes and net charge, as previously described. Data were collected at 50 Hz, filtered at 20 Hz for α7 receptors or filtered at 5 Hz for heteromeric nAChR, and analyzed by Clampfit (Molecular Devices, San Jose, CA, USA) and Excel (Microsoft, Redmond, WA, USA). Data were expressed as means ± SEM from at least four oocytes for each experiment and plotted with Kaleidagraph 4.5.2 (Abelbeck Software, Reading, PA, USA). Multi-cell averages were calculated for comparisons of complex responses. Averages of the normalized data were calculated for each of the 10,322 points in each of the 206.44 s traces (acquired at 50 Hz), as well as the standard errors for those averages.

α7 nAChR [2] = target: T1, α7 nAChR; test: α7 concentration-response on co-application with 10 µM PNU-120596; assay type: cell-based; conditions: peak currents, co-applied with 10 µM PNU-120596, Hill fit; for IMax (PNU Activation): approximation only
Procedure: (§4) Compounds were co-applied at a concentration of 100 µM with 30 µM racemic TQS (Figure 3A). All compounds except S4, S5, and S8 gave large responses when co-applied with TQS, consistent with silent agonism of α7 (see Table S1 for ANOVA). Active compounds were also evaluated across a range of concentrations with the alternative PAM, PNU-120596 (Figure 3B). The curve-fit values for Imax (Table 1) should be taken only as approximation of the relative efficacies of the compounds, due to the large variability frequently observed in PNU-120596-potentiated responses, as evidenced by the large SEMs of the responses obtained with high concentrations.
(§5) Figure 3 Responses of α7 nAChR to sulfonium compounds coapplied with PAMs. (A) Potentiation of α7 responses with 30 µM racemic TQS. Shown are the average net-charge responses of seven or eight oocytes ± SEM. (B) Concentration-response studies of peak currents generated by compounds that gave positive responses with TQS, coapplied with 10 µM PNU-120596. Each point represents the average (±SEM) of at least four oocytes.
as §1, §3

α7 nAChR [3] = target: T1, α7 nAChR; test: α7 responses on co-application with the type II PAM TQS (silent agonism); assay type: cell-based; conditions: for α7 functional classification (silent agonist / inactive): inactive alone, active with a PAM = silent agonist; for response when co-applied with TQS: 100 µM compound with 30 µM racemic TQS, net charge
Procedure: as §4, §5
The human nAChR clones were obtained from Jon Lindstrom (University of Pennsylvania, Philadelphia, PA, USA). Mouse muscle subunit clones were obtained from Jim Boulter (Salk Institute, La Jolla, CA, USA) and Paul Gardner (Dartmouth, Hanover, NH, USA). The human resistance-to-cholinesterase 3 (RIC3) clone was obtained from Millet Treinin (Hebrew University, Jerusalem, Israel) and co-injected with α7 to improve the level and speed of α7 receptor expression without affecting the pharmacological properties of the receptors. Subsequent to linearization and purification of the plasmid DNAs, RNAs were prepared using the mMessage mMachine in vitro RNA transcription kit (Ambion, Austin, TX, USA).
as §1, §3

[4] = system: α4β2 subtypes formed with concatamers; test: Inhibition of ACh control peak-current responses of α4-containing nAChR formed with concatamers; assay type: cell-based, human; conditions: 100 µM compound, Figure 7B
Procedure: as §2
Figure 7 Inhibition of heteromeric nAChR by sulfonium compounds. (A) Inhibition of α3β4 100 µM ACh-evoked peak currents by the co-application of the sulfonium compounds. Data are the averaged of six to eight oocytes (±SEM). […]
as §3, with “Drug applications were 12 s in duration, followed by 181 s washout periods for α7 receptors, or 6 s in duration followed by 301 s washout periods for heteromeric nAChR.” left out

pKa by titration = assay type: physicochemical
Excerpt: One of the questions that emerges from the data is why aromatic sulfoniums as structurally similar as S5, S9, and S10 provide different responses when coapplied with TQS. Indeed, compounds S5 and S9 virtually overlap in their best docked poses (Supplementary Figure S1), but the α7 response of S9 and TQS was dramatically greater than that of S5 and TQS (p < 0.001, Table S1). The formation of cation–pi interactions is a key feature of the binding of nicotinic orthosteric ligands, and the electronic distribution of the cation can be compared qualitatively in a series of compounds using molecular electrostatic potentials (MEPs). Analysis of the MEPs shown in Figure 9 reveal that the substituents on the benzene ring can modulate the intensity of the positive charge on the sulfonium center. Compound S5, for instance, has two hydroxyl groups which are strongly electron donating, and in comparison to compound S9, which has only one hydroxyl group, the intensity of the positive charge is […]. Another factor may be that a lone pair on the ortho hydroxyl substituent is donating electron density through space to the neighboring sulfonium, redistributing its positive charge. Compound S10 also has an ortho hydroxyl group, but unlike compound S5, compound S10 also has a nitro group, which is a strong electron-withdrawing group that may offset the electron-donating impact of the ortho hydroxyl group. Inspection of the MEP surface shown in Figure 9 does indicate that, relative to S5, the S10 sulfonium bears greater positive electrostatic potential. Given that compounds such as para-nitrophenol are acidic, with a pKa of ~7 for the phenolic hydroxyl, we also considered whether the deprotonated forms of S5, S9, and S10 might be accessible at the pH of our experiments.
Thus, all three compounds have varying proportions of the phenolic OH in the phenoxide form at the pH of Ringers solution used in the experiments. […] Future work on analogs of these compounds may be focused on substituents that are non-ionizable, and thus preserve a positive molecular charge derived from the sulfonium center.

[5] = 5 µM S8 pre-applied and co-applied

T2 sequence (P32297 32-505): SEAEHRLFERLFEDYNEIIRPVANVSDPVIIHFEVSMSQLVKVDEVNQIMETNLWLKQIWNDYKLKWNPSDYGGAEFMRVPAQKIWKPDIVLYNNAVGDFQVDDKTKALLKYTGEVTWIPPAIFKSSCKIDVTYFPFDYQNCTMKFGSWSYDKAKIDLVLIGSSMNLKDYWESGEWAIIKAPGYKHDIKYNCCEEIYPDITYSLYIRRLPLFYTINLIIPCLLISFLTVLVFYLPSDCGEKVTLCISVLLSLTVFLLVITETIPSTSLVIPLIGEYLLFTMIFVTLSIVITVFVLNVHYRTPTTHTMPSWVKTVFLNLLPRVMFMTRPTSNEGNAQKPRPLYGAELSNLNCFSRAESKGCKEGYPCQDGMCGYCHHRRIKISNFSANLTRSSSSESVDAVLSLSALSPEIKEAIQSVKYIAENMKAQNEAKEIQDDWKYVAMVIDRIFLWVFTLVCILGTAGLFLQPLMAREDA
T2 sequence (P30926 22-498): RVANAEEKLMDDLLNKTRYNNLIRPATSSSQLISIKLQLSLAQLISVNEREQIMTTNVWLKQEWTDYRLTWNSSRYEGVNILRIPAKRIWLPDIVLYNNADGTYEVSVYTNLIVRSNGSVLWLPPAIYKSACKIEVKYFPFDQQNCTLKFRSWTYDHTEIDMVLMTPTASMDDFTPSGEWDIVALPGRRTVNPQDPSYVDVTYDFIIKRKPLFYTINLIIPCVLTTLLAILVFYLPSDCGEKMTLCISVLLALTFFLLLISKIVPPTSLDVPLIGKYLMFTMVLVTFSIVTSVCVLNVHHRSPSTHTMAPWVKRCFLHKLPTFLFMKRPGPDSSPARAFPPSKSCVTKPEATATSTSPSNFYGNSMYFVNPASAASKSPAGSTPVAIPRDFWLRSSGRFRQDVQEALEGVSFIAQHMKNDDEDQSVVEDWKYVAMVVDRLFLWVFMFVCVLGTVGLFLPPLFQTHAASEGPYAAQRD
T1 sequence (P36544 23-502): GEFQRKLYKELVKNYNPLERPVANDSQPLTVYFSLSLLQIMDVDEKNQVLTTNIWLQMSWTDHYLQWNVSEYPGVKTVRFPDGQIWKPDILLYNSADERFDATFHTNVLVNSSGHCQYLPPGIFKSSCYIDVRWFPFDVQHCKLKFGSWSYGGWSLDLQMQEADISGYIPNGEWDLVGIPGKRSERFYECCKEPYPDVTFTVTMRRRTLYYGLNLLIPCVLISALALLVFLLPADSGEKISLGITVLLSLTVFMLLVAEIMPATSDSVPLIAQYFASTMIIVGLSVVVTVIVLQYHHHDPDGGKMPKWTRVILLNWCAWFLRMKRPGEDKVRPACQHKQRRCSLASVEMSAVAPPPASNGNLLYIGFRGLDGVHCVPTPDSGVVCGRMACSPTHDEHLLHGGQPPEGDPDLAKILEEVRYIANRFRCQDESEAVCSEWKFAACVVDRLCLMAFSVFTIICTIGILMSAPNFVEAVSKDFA

## CC[S+](CC)CC [Compound S11, triethylsulfonium iodide]
α7 nAChR [1]
  effect on 60 µM ACh response at 1 mM: not statistically significant
α3β4 nAChR
  IC50: 108 ± 20 µM
α7 nAChR [2]
  IMax (PNU Activation): >1.8
α7 nAChR [3]
  α7 functional classification (silent agonist / inactive): silent agonist

## C[S+](Cc1ccccc1)Cc1ccccc1 [Compound S8, dibenzyl(methyl)sulfonium tetrafluoroborate]
α7 nAChR [1]; [5]
  60 µM ACh peak currents, % controls: 21 ± 3%
  1 mM ACh net-charge responses, % of those obtained without S8 co-application: 56 ± 6%
α7 nAChR [1]; 5 µM S8 pre-applied and co-applied, n = 8, read-out: 60 µM ACh net-charge responses, % of controls
  remaining activity at 5 µM: 28 ± 2%
α7 nAChR [1]; net charge, co-application, eight cells, read-out: IC50 for inhibition of 60 µM ACh responses
  IC50: 4.9 ± 2.7 µM
α7 nAChR [1]; with 5 µM S8 pre- and co-application, n = 8
  1 mM ACh peak-current amplitudes compared to 60 µM controls: 3.72 ± 0.81
α3β4 nAChR
  IC50: 3.4 ± 0.4 µM
[4]
  relative antagonist activity: most active antagonist

## OCC[S+](CCO)CCO.[Br-] [Compound S4, tris(2-hydroxyethyl)sulfonium bromide]
α7 nAChR [1]; net charge
  inhibition of responses to 60 µM ACh: failed to produce inhibition
α7 nAChR [3]
  response when co-applied with TQS: did not generate responses
  α7 functional classification (silent agonist / inactive): simply inactive

## CCOC(=O)C[S+](C)C.[Br-] [Compound S2, (2-ethoxy-2-oxoethyl)dimethylsulfonium bromide]
α7 nAChR [1]
  effect on 60 µM ACh response at 1 mM: significant inhibition
  inhibition at 100 µM: ≤ 10%
α7 nAChR [2]
  IMax (PNU Activation): 16 ± 6
α7 nAChR [3]
  α7 functional classification (silent agonist / inactive): efficacious silent agonist

## COc1ccc([N+](=O)[O-])cc1C[S+](C)C.[Br-] [Compound S3, (2-methoxy-5-nitrobenzyl)dimethylsulfonium bromide]
α7 nAChR [1]
  inhibition at 100 µM: ~50%
α3β4 nAChR
  IC50: 18 ± 2.6 µM
α7 nAChR [2]
  IMax (PNU Activation): 22 ± 2.5
α7 nAChR [2]; read-out: EC50 (PNU Activation)
  EC50: 263 ± 23 µM
α7 nAChR [3]
  α7 functional classification (silent agonist / inactive): silent agonist activity

## C[S+](C)CC(=O)c1ccccc1.F[B-](F)(F)F [Compound S7, dimethyl(2-oxo-2-phenylethyl)sulfonium tetrafluoroborate]
α7 nAChR [2]
  IMax (PNU Activation): >1.1
α7 nAChR [3]
  α7 functional classification (silent agonist / inactive): silent agonist activity

## C[S+](C)c1ccc(O)cc1O [Compound S5, (2,4-dihydroxyphenyl)dimethylsulfonium trifluoromethanesulfonate]
α7 nAChR [1]; net charge
  inhibition of responses to 60 µM ACh: failed to produce inhibition
pKa by titration; phenolic hydroxyl, data not shown for S9, S10, read-out: pKa
  pKa: ~6.3
pKa by titration; read-out: pKa for the second hydroxyl
  pKa: 9.2
α7 nAChR [3]
  response when co-applied with TQS: did not generate responses
  α7 functional classification (silent agonist / inactive): simply inactive
